Laboratory results taken from ChEMBL document CHEMBL1144205, “Screening of herbal constituents for aromatase inhibitory activity” (Bioorg Med Chem, 2008).

Key:
Aromatase [1] = biological target: T1, Aromatase (Homo sapiens, UniProt P11511); assay: Inhibition of human aromatase expressed in CHO cells; format: cell-based
T1 sequence (P11511 whole entry): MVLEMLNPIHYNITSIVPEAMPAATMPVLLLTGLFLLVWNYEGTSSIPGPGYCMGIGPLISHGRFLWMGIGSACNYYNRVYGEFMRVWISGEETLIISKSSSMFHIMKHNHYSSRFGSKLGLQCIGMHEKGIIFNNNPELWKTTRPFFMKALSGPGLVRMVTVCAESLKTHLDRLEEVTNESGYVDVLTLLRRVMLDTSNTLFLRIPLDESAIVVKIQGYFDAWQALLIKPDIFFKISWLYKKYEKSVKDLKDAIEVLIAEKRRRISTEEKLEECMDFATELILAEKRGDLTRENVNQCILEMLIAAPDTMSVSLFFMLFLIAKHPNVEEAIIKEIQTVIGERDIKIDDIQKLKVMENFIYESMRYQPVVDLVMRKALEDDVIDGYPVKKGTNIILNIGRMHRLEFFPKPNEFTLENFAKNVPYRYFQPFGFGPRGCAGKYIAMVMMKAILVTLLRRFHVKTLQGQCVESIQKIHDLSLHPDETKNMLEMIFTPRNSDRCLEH

Aromatase [2] = biological target: T1, Aromatase; assay: Inhibition of human aromatase by fluorometric assay

Ki (Aromatase [1]) [µM] | SMILES | IC50 (Aromatase [2]) [µM]
100 | O=c1c(-c2ccc(O)cc2)coc2cc(O)ccc12 [DAIDZEIN] | 
100 | O=c1c(O)c(-c2ccccc2)oc2cc(O)cc(O)c12 [GALANGIN] | 
100 | O=c1c(-c2ccc(O)cc2)coc2cc(O)cc(O)c12 [GENISTEIN] | 

The next lines start with the compound.

SMILES | Ki (Aromatase [1]) [µM] | IC50 (Aromatase [2]) [µM]
O=c1c(O)c(-c2ccc(O)c(O)c2)oc2c(O)c(O)cc(O)c12 [GOSSYPETIN] |  | 11
O=c1c(O)c(-c2cc(O)c(O)c(O)c2)oc2cc(O)cc(O)c12 [MYRICETIN] |  | 10
O=C1C[C@@H](c2ccc(O)cc2)Oc2cc(O)ccc21 [LIQUIRTIGENIN] |  | 0.34
